Measurements taken from ChEMBL document CHEMBL1146854, “Estimation of the hydrophobicity of 2,4-diphenyl-1,3-oxazoline analogs and QSAR analysis of their ovicidal activity against Tetranychus [corrected] urticae” (Bioorg Med Chem Lett, 2006).
In brackets after ≈: the same amount, converted by molar mass.

Experiments:
Tetranychus urticae = assay: Ovicidal activity against Tetranychus urticae; type: functional
[1] = Partition coefficient, log P of the compound; type: physicochemical; conditions: octanol/water

Structure (SMILES)	LC50 (Tetranychus urticae) [µg/mL]	logP [1]
Clc1ccc(C2=NC(c3ccccc3)CO2)c(Cl)c1 (stereo unspecified)	10 (≈ 34.2 µM)	4.4
CCSc1ccccc1C1=NC(c2ccccc2)CO1 (stereo unspecified)	100 (≈ 353 µM)	4.04
Brc1ccccc1C1=NC(c2ccccc2)CO1 (stereo unspecified)	0.1 (≈ 0.331 µM)	3.69
Clc1cccc(C2=NC(c3ccccc3)CO2)c1Cl (stereo unspecified)	10 (≈ 34.2 µM)	4.28
Ic1ccccc1C1=NC(c2ccccc2)CO1 (stereo unspecified)	1 (≈ 2.86 µM)	3.86
FC(F)(F)c1ccccc1C1=NC(c2ccccc2)CO1 (stereo unspecified)	100 (≈ 343 µM)	3.71
Cc1cccc(C2=NC(c3ccccc3)CO2)c1 (stereo unspecified)	> 1000	4.11
c1ccc(Oc2ccccc2C2=NC(c3ccccc3)CO2)cc1 (stereo unspecified)	100 (≈ 317 µM)	5.61
Cc1ccc(C2=NC(c3ccccc3)CO2)cc1 (stereo unspecified)	> 1000	4.11
Fc1cccc(Cl)c1-c1ncco1	–	1.89
Clc1ccc(C2=NC(c3ccccc3)CO2)cc1 (stereo unspecified)	100 (≈ 388 µM)	4.48
Fc1cccc(Cl)c1C1=NC(c2ccccc2)CO1 (stereo unspecified)	0.01 (≈ 0.0363 µM)	3.45
Clc1ccc(Cl)c(C2=NC(c3ccccc3)CO2)c1 (stereo unspecified)	100 (≈ 342 µM)	4.4
Fc1cccc(F)c1C1=NC(c2ccccc2)CO1 (stereo unspecified)	1 (≈ 3.86 µM)	3.01
Clc1cccc(C2=NC(c3ccccc3)CO2)c1 (stereo unspecified)	100 (≈ 388 µM)	4.44
c1ccc(C2=NC(c3ccccc3)CO2)cc1 (stereo unspecified)	10 (≈ 44.8 µM)	3.56

Structure (SMILES)	LC50 (Tetranychus urticae) [µg/mL]	logP [1]
CSc1ccccc1C1=NC(c2ccccc2)CO1 (stereo unspecified)	100 (≈ 371 µM)	3.5
Cc1ccccc1C1=NC(c2ccccc2)CO1 (stereo unspecified)	100 (≈ 421 µM)	3.68
O=[N+]([O-])c1ccccc1-c1ncco1	–	1.27
CCOc1ccccc1C1=NC(c2ccccc2)CO1 (stereo unspecified)	> 1000	4.22
Ic1ccccc1-c1ncco1	–	2.3
Clc1ccccc1C1=NC(c2ccccc2)CO1 (stereo unspecified)	1 (≈ 3.88 µM)	3.56
Fc1cccc(F)c1-c1ncco1	–	1.45
COc1ccccc1C1=NC(c2ccccc2)CO1 (stereo unspecified)	10 (≈ 39.5 µM)	3.76
Fc1ccccc1C1=NC(c2ccccc2)CO1 (stereo unspecified)	10 (≈ 41.4 µM)	3.51
FC(F)(F)c1ccccc1-c1ncco1	–	2.15
O=[N+]([O-])c1ccccc1C1=NC(c2ccccc2)CO1 (stereo unspecified)	100 (≈ 373 µM)	2.83
Clc1cccc(Cl)c1C1=NC(c2ccccc2)CO1 (stereo unspecified)	1 (≈ 3.42 µM)	3.69
Cc1cccc(C)c1-c1ncco1	–	2.21
COc1cccc(C2=NC(c3ccccc3)CO2)c1 (stereo unspecified)	> 1000	3.77
COc1ccc(C2=NC(c3ccccc3)CO2)cc1 (stereo unspecified)	100 (≈ 395 µM)	3.78
